Counter-ions that a name gives are not always drawn. Like-named read-outs stand apart in the source and are kept apart here.
Target: SARS-CoV-2 3CLpro (Severe acute respiratory syndrome coronavirus 2, UniProt P0DTD1)
Test: biochemical
Assay type: biochemical
Set-up: Replicate_1 / Replicate_2 / mean / mean (LOPAC_screen_w_protease): unit not given here
Settings: for inhibition at 5 µM: 4 h; for mean (LOPAC screen with protease) / Replicate_1 (LOPAC screen with protease) / Replicate_2 (LOPAC screen with protease): primary screen at 5 µM
[1] = LOPAC1280 primary screen with protease, 5 µM compound, mean of two replicates
[2] = LOPAC1280 primary screen with protease, 5 µM compound, replicate 1
[3] = LOPAC1280 primary screen with protease, 5 µM compound, replicate 2
[4] = sheet LOPAC_screen_w_protease, mean of two replicates
[5] = sheet LOPAC_screen_w_protease, replicate 1
[6] = sheet LOPAC_screen_w_protease, replicate 2
[7] = sheet LOPAC_screen_w_protease, primary screen with protease, compound at 5 µM, mean of two replicates
[8] = sheet LOPAC_screen_w_protease, primary screen with protease, compound at 5 µM, replicate 1
[9] = sheet LOPAC_screen_w_protease, primary screen with protease, compound at 5 µM, replicate 2
[10] = LOPAC1280 primary screen with protease, 5 µM compound, mean of the two replicates
[11] = sheet LOPAC_screen_w_protease, primary screen with protease, 5 µM, mean of two replicates
[12] = sheet LOPAC_screen_w_protease, primary screen with protease, 5 µM, replicate 1
[13] = sheet LOPAC_screen_w_protease, primary screen with protease, 5 µM, replicate 2
[14] = LOPAC1280 primary screen with protease, 5 µM compound, replicate 1, read-out: Replicate_1 (LOPAC_screen_w_protease)
[15] = LOPAC1280 primary screen with protease, 5 µM compound, replicate 2, read-out: Replicate_2 (LOPAC_screen_w_protease)

**Q.** Which “mean (LOPAC_screen_w_protease)” value [1] does the source give for `Nc1ncnc2c1ncn2[C@@H]1O[C@H](C(=O)NC2CC2)[C@@H](O)[C@H]1O` [5'-(N-Cyclopropyl)carboxamidoadenosine] here?
**A.** The value was 1.624.

**Q.** What about the “Replicate_1 (LOPAC_screen_w_protease)” value [2] of the same compound?
**A.** The value was 1.713.

**Q.** What about the “Replicate_2 (LOPAC_screen_w_protease)” value [3] of the same compound?
**A.** Its value is 1.536.

**Q.** Which results are given for `N[C@@H](C(=O)N[C@@H]1C(=O)N2C(C(=O)O)=C(Cl)CS[C@H]12)c1ccccc1` [Cefaclor]?
**A.** inhibition at 5 µM (read-out: Replicate_1 (LOPAC screen with protease)): 13.9%; inhibition at 5 µM (read-out: Replicate_2 (LOPAC screen with protease)): 11.6%; inhibition at 5 µM (read-out: mean (LOPAC screen with protease)): 12.7%

**Q.** `CC1=C(/C=C/C(C)=C/C=C/C(C)=C/C(=O)Nc2ccc(O)cc2)C(C)(C)CCC1` [Retinoic acid p-hydroxyanilide] was tested. Which mean (sheet LOPAC_screen_w_protease, primary screen with protease, mean of two replicates) did it give?
**A.** The mean was 2.295.

**Q.** What about the Replicate_1 (sheet LOPAC_screen_w_protease, primary screen with protease, replicate 1) of the same compound?
**A.** The Replicate_1 was 3.365.

**Q.** And the Replicate_2 (sheet LOPAC_screen_w_protease, primary screen with protease, replicate 2)?
**A.** Its Replicate_2 is 1.2239.

**Q.** `Br.C=CCN1CCc2cccc3c2[C@H]1Cc1ccc(O)c(O)c1-3` [R(-)-N-Allylnorapomorphine hydrobromide] was tested. Which “mean (LOPAC screen with protease)” value [4] did it give?
**A.** Its value is 97.2039.

**Q.** And the “Replicate_1 (LOPAC screen with protease)” value [5]?
**A.** The value was 99.2109.

**Q.** What about the “Replicate_2 (LOPAC screen with protease)” value [6] of the same compound?
**A.** Its value is 95.1969.

**Q.** Which inhibition at 5 µM (read-out: Replicate_1) does the source give for `Nc1nc2ccc(Cl)cc2c2nc(-c3ccco3)nn12` [CGS-15943] here?
**A.** The inhibition at 5 µM was 3.31%.

**Q.** And the inhibition at 5 µM (read-out: Replicate_2)?
**A.** The inhibition at 5 µM was 3.81%.

**Q.** What about the inhibition at 5 µM (read-out: mean) of the same compound?
**A.** The inhibition at 5 µM was 3.56%.

**Q.** `CCN(CC)c1ncnc2c1ncn2[C@@H]1O[C@H](COP(=O)([O-])OP(=O)([O-])C(Br)(Br)P(=O)([O-])O)[C@@H](O)[C@H]1O.[Na+].[Na+].[Na+]` [ARL 67156 trisodium salt] was tested. Which mean [7] did it give?
**A.** The mean was 2.893.

**Q.** And the Replicate_1 [8]?
**A.** Its Replicate_1 is 2.692.

**Q.** What about the Replicate_2 [9] of the same compound?
**A.** The Replicate_2 was 3.094.

**Q.** For `NC(C(=O)O)C(O)C(=O)O` (racemic) [DL-threo-beta-hydroxyaspartic acid], which “mean (LOPAC_screen_w_protease)” value [10] is on record?
**A.** Its value is 2.095.

**Q.** And the “Replicate_1 (LOPAC_screen_w_protease)” value [2]?
**A.** Its value is 2.385.

**Q.** And the “Replicate_2 (LOPAC_screen_w_protease)” value [3]?
**A.** The value was 1.804.

**Q.** How did the mean [11] turn out when `C[C@]12CCC(=O)C(O)=C1CC[C@@H]1[C@@H]2CC[C@]2(C)C(=O)CC[C@@H]12` [4-Androsten-4-ol-3,17-dione] was run?
**A.** Its mean is 0.2033.

**Q.** And the Replicate_1 [12]?
**A.** Its Replicate_1 is 1.5144.

**Q.** What about the Replicate_2 [13] of the same compound?
**A.** The Replicate_2 was -1.108.

**Q.** With `CC(C)C1C2CCC(C2)C1N.Cl` (stereo not drawn) [AGN 192403 hydrochloride] as the compound, how does the mean [7] read?
**A.** The mean was 2.735.

**Q.** What about the Replicate_1 [8] of the same compound?
**A.** Its Replicate_1 is 2.811.

**Q.** What about the Replicate_2 [9] of the same compound?
**A.** The Replicate_2 was 2.66.

**Q.** What does the source list for `Nc1ccncc1` [4-Aminopyridine]?
**A.** inhibition at 5 µM (sheet LOPAC_screen_w_protease, primary screen with protease, 5 µM, mean of two replicates, read-out: mean): -0.189%; inhibition at 5 µM (sheet LOPAC_screen_w_protease, primary screen with protease, 5 µM, replicate 1, read-out: Replicate_1): 0.392%; inhibition at 5 µM (sheet LOPAC_screen_w_protease, primary screen with protease, 5 µM, replicate 2, read-out: Replicate_2): -0.771%

**Q.** Which mean (sheet LOPAC_screen_w_protease, LOPAC1280 at 5 µM, mean of two replicates) does the source give for `CCCN(CCc1ccccc1)C1CCc2c(O)cccc2C1.Cl` (racemic) [(±)-PPHT hydrochloride] here?
**A.** Its mean is 1.126.

**Q.** And the Replicate_1 (sheet LOPAC_screen_w_protease, LOPAC1280 at 5 µM, replicate 1)?
**A.** Its Replicate_1 is 1.344.

**Q.** And the Replicate_2 (sheet LOPAC_screen_w_protease, LOPAC1280 at 5 µM, replicate 2)?
**A.** The Replicate_2 was 0.9086.

**Q.** What does the source list for `C#C[C@]1(O)CC[C@H]2[C@@H]3CCC4=Cc5oncc5C[C@]4(C)[C@H]3CC[C@@]21C` [Danazol]?
**A.** inhibition at 5 µM (sheet LOPAC_screen_w_protease, primary screen with protease, mean of two replicates, read-out: mean): 2.5%; inhibition at 5 µM (sheet LOPAC_screen_w_protease, primary screen with protease, replicate 1, read-out: Replicate_1): 4.08%; inhibition at 5 µM (sheet LOPAC_screen_w_protease, primary screen with protease, replicate 2, read-out: Replicate_2): 0.911%

**Q.** How did the “mean (LOPAC screen with protease)” value [4] turn out when `CCC(NC(C)C)C(O)c1ccc(O)c(O)c1.CS(=O)(=O)O` (stereo not drawn) [Isotharine mesylate] was run?
**A.** The value was 8.447.

**Q.** What about the “Replicate_1 (LOPAC screen with protease)” value [5] of the same compound?
**A.** The value was 8.4794.

**Q.** What about the “Replicate_2 (LOPAC screen with protease)” value [6] of the same compound?
**A.** The value was 8.416.

**Q.** `Cn1c(=O)c2[nH]c(C3CCCC3)nc2n(C)c1=O` [8-Cyclopentyl-1,3-dimethylxanthine] was tested. Which mean [11] did it give?
**A.** Its mean is 0.2262.

**Q.** And the Replicate_1 [12]?
**A.** Its Replicate_1 is 2.489.

**Q.** What about the Replicate_2 [13] of the same compound?
**A.** The Replicate_2 was -2.037.

**Q.** With `CC(CCc1ccc(O)cc1)NCCc1ccc(O)c(O)c1` (stereo not drawn) [Dobutamine hydrochloride] as the compound, how does the inhibition at 5 µM [14] read?
**A.** The inhibition at 5 µM was 2.05%.

**Q.** What about the inhibition at 5 µM [15] of the same compound?
**A.** The inhibition at 5 µM was 2.06%.

**Q.** What about the “mean (LOPAC_screen_w_protease)” value [10] of the same compound?
**A.** The value was 2.053.

**Q.** `CCCC(=O)NCCc1c2n(c3ccc(OC)cc13)Cc1ccccc1-2` [IIK7] was tested. Which mean (sheet LOPAC_screen_w_protease, primary screen of LOPAC1280 at 5 µM with protease, mean of the two replicates) did it give?
**A.** Its mean is 3.902.

**Q.** And the Replicate_1 (sheet LOPAC_screen_w_protease, primary screen of LOPAC1280 at 5 µM with protease, replicate 1)?
**A.** Its Replicate_1 is 5.727.

**Q.** And the Replicate_2 (sheet LOPAC_screen_w_protease, primary screen of LOPAC1280 at 5 µM with protease, replicate 2)?
**A.** Its Replicate_2 is 2.078.

**Q.** How did the “mean (LOPAC_screen_w_protease)” value [1] turn out when `CC(=O)NCCc1c[nH]c2ccc(O)cc12` [N-Acetyl-5-hydroxytryptamine] was run?
**A.** Its value is 1.513.

**Q.** And the “Replicate_1 (LOPAC_screen_w_protease)” value [2]?
**A.** The value was 1.947.

**Q.** And the “Replicate_2 (LOPAC_screen_w_protease)” value [3]?
**A.** Its value is 1.078.

**Q.** `Nc1nc2ccc(OC(F)(F)F)cc2s1` [Riluzole] was tested. Which inhibition at 5 µM [14] did it give?
**A.** The inhibition at 5 µM was 2.44%.

**Q.** What about the inhibition at 5 µM [15] of the same compound?
**A.** Its inhibition at 5 µM is 0.68%.

**Q.** And the “mean (LOPAC_screen_w_protease)” value [1]?
**A.** Its value is 1.558.

From publication PMC7587356, “High-Throughput Screening for Inhibitors of the SARS-CoV-2 Protease Using a FRET-Biosensor” (Molecules, 2020)
